Laboratory results: patent publication US12053441B2, “Formulations for improving the delivery of hydrophobic agents” (THE ROYAL INSTITUTION FOR THE ADVANCEMENT OF LEARNING / …, priority 2018, dated 2024)
Residues, ends and D or L forms follow the SMILES beside them.

What was measured:
[1] = Description: Solubilization studies. In order to link the surfactant properties of McC1 and its stimulating impact on UQ10 uptake, the solubilization characteristics of McC1 on UQ10 have been determined. First, solubilization test was performed by overnight shaking of a mixture of UQ10 and McC1 in water.
Additional solubilization tests were performed using sonication. Excess amount of UQ10 was mixed with McC1 by sonication for 2 min in water.
Like caspofungin/McC1, surfactin is a cyclic lipopeptide. It is produced from various strains of Bacillus subtilis. Structurally it consists of a peptide chain formed by seven amino acids linked to a β-hydroxyl fatty acid via a lactone bond. It is known for its exceptional surfactant power. […] Then, solubilization test was performed by overnight shaking of a mixture of UQ10 and surfactin in water. The mixture were subjected to brief centrifugation to separate undissolved UQ10 before absorbance of the resultant clear supernatant at 275 nm was measured spectrophotometrically.
Several other surfactants were tested for their ability to solubilize UQ. Briefly, excess amount of UQ10 was mixed with water solution of the tested surfactants using sonication. The resultant suspensions were then filtered through a 0.45 μm syringe filter to remove undissolved UQ10.

Pdss2/Mclk1 DKO cells [2] = assay: Oxygen consumption rate (OCR) by Seahorse XF analyzer; format: cell-based, mouse
Description: Measurement of oxygen consumption by Seaborse XF analyzer. Cells were seeded in XF v7 24-well plates (Seahorse Bioscience) at ˜40,000 cells/well for 24 hr. Prior to the measurements, cell medium was replaced with Seahorse XF base medium supplemented with 5.5 mM glucose (Sigma Cat No G8769), 2 mM Glutamax (Thermo Fisher Cat No 35050061) and 1 mM sodium pyruvate and allowed to equilibrate for 1 hour at 37° C. Oxygen consumption was measured first under baseline condition, followed by subsequent addition of 1 μg/ml oligomycin (Sigma Cat No 04876), 0.8 μM FCCP (Sigma Cat No C2920) and a combination of 1 μM rotenone (Sigma Cat No R8875) and 5 μM antimycin A (Sigma Cat No A8674) to assess the basal and maximal mitochondrial respiration rates. Four baseline measurements were recorded before the consecutive addition of the above-mentioned compounds, and three response measurements were taken after the addition of each compound. Results were finally normalized to protein content determined using the Bradford reagent (Bio-Rad). For experiments that involved culturing cells in the presence of lipoprotein-deficient serum (LPDS), cells were grown in culture medium supplemented with LPDS (Sigma S5394) for 1 week before OCR was measured using a Seahorse XF-24 extracellular flux analyzer as described above.

Pdss2/Mclk1 DKO cells [3] = assay: Viability in glucose-free galactose-containing medium (resazurin reduction assay); format: cell-based, mouse
Description: Tissue culture and viability assays. […] Cell viability was determined by resazurin (Sigma Cat No R7017) reduction assay or crystal violet staining following standard procedures.
(§1) The resazurin cell viability assay. Briefly, resazurin was added directly to plates at 1/10 the volume of glucose culture medium. Viable cells with active metabolism can reduce resazurin into resorufin which causes a colour change from blue to pink. After a 2 hr incubation, plates were read on a plate reader (Tecan) to record absorbance at 570 nm and 600 nm. The cell viability was scored as a percentage relative to the signal from untreated glucose-grown wells. Consequently, each screened compound may be described by its effect (no, partial or full rescue) on survival of the KO cells in galactose medium.
The screen also uses cells lacking UQ biosynthesis (e.g., DKO cells) and its protocol is essentially the same as the galactose-only screen except that in step 2, a minimal amount of UQ10 is added into the galactose screening media at a concentration at which the added UQ10 is insufficient by itself to support survival.

human Hela cells = assay: Cellular UQ10 levels (quinone quantification by HPLC); format: cell-based; details: 1 hour treatment, human cells (FIG. 15)
From the text: (A) UQ levels in wild-type MEFs after treatment with McC1-solubilized form of UQ10. (B) UQ levels in human Hela cells after treatment with McC1-solubilized form of UQ10. Results are shown as the levels of UQ9 (white bars, measured as ng/mg of protein) or UQ10 (black bars, measured as ng/mg of protein) in control conditions (+None), after treatment with a formulation containing McC1-solubilized form of UQ10, or in the presence of UQ10 only (+UQ10). For the 2 treatment conditions in A, the final UQ10 concentrations in the media were the same—2.5 μM. In B, the final UQ10 concentrations in the media were 8 μM for the two treatment conditions. Values are mean±SEM (n=2). ****p<0.0001 (one-way ANOVA).
(§2) Quantification of quinones. Quinone content was detected and quantified by HPLC as previously described. […] After centrifugation for 5 min at 8,000×g, the hexane layer was collected and evaporated in a vacuum centrifuge. The quinone residue was then dissolved in ethanol and stored at −20° C. until HPLC analysis. The HPLC analysis was performed on a reverse phase C18 column (25.0×0.46 cm, 5 μm, Highchrom) using UV detection at 275 nm (Beckman System Gold). The mobile phase was methanol/ethanol (70:30 v/v) and isocratic elution was used at a flow rate of 1.8 ml/min.

wildtype MEFs = assay: as above; format: cell-based, mouse; details: 1 hour treatment, mouse cells (FIG. 15)
Description: as §2

Mclk1 KO cells = assay: Viability in glucose-free galactose-containing medium (resazurin reduction assay); format: cell-based, mouse
Description: Tissue culture and viability assays. […] To score growth and viability in galactose, cells were first grown in high glucose DMEM medium to confluency and then switched to glucose-free DMEM media (Thermo Fisher Cat No 26400036) supplemented with 10 mM galactose (Sigma Cat No G5388), 1 mM sodium pyruvate (Thermo Fisher Cat No 11360070), 10% dialyzed FBS (Thermo Fisher Cat No 26400036) and 1% antibiotic-antimycotic solution. Cell viability was determined by resazurin (Sigma Cat No R7017) reduction assay or crystal violet staining following standard procedures.
The screen uses cells lacking UQ (e.g., Mclk1 KO cells) and consists of three key steps: • 1) Day 0: preparation of Mclk1 KO cells in 96-well plates in standard (glucose-containing) culture medium. • 2) Day 1: changing to glucose-free galactose-containing medium and adding compounds to be screened at a concentration of approximately 10 μM. • 3) Day 4 to 6: following 3 to 5 days of incubation with the compound to be screened, media were removed and cell viability was assayed by resazurin reduction assay.
as §1

cells = assay: Cellular UQ measurements after treatment with micellar UQ10 solutions (FIG. 22); format: cell-based; details: UQ10 solution prepared with the surfactant, 6 μM UQ10, 1-day
From the text: UQ levels are expressed as ng per mg of protein (mean±SEM). Each bar represents the average of 2 to 3 independent measurements. […] ND: not detected. #p<0.0001 (vs. untreated controls; two-way ANOVA followed by Dunnett's multiple comparison test).

[4] = Drop collapse assay (surfactant activity); format: physicochemical
Description: Drop collapse assay is a simple detection method of surface active agents. It relies on the capacity of surfactants to destabilize the liquid droplets on an oily surface. The drop-collapsing ability of McC1 along with other known potent surfactants was characterized. For each, 40 ul of compound solution in water was pipetted onto a hydrophobic Parafilm surface and the diameter of the drops was measured 1 min later using a ruler.

[5] = tested on: mitochondria of wild-type MEFs; assay: UQ levels in mitochondrial extracts; format: cell-based, mouse
From the text: FIGS. 7A to 7D present exemplary data showing that McC1 is capable of increasing the uptake of exogenous UQ into cells and mitochondria. (A) Bar chart showing change of UQ10 levels (as measured in ng/μg of protein) in Pdss2/Mclk1 DKO MEFs after treatment with UQ10, McC1 alone, or UQ10 and McC1 in combination. **p<0.01, ***p<0.001 (one-way ANOVA). (B) Bar charts presenting exemplary data showing changes of UQ levels in wildtype MEFs after treatment with UQ10, McC1 alone, or both in combination. Results are shown as cellular UQ10 levels (as provided in ng/μg of protein, left panel) or UQ9 levels (as provided in ng/μg of protein, right panel) in untreated cells, after treatment with 12.5 μM of McC1, after treatment with 2.5 μM of UQ10, or after co-treatment UQ10 and McC1. Results are mean±SEM (n=3). ****p<0.0001 (one-way ANOVA). (C) Bar chart presenting exemplary data showing changes of UQ10 and UQ9 levels in mitochondrial extracts from wildtype MEFs after treatment with UQ10 alone, or in combination with McC1. Results are shown as UQ9 and UQ10 levels in ng/μg of protein. Results are mean±SEM (n=3). ****p<0.0001 (student's t-test). (D) Bar chart presenting exemplary data showing changes of UQ10 level in mitochondrial extracts from Pdss2/Mclk1 DKO MEFs after treatment with UQ10 alone, or in combination with McC1. Results are shown as UQ10 levels (as provided in ng/μg of protein) in untreated DKO cells, after treatment with 2.5 μM of UQ10, or after co-treatment 2.5 μM of UQ10 and 12.5 μM of McC1. ND: Not Detectable. Results are mean±SEM (n=3). ****p<0.0001 (one-way ANOVA).
as §2

Pdss2/Mclk1 DKO MEFs = assay: Cellular UQ10 levels (quinone quantification by HPLC); format: cell-based, mouse; details: in combination with UQ10, vs UQ10 alone
Description: as §2

[6] = Solubilization of curcumin in water; format: physicochemical
From the text: It is important to note that in contrast with the other surfactants tested, McC1 is non-toxic and can be used in intravenous injection.

## COC1=C(OC)C(=O)C(C/C=C(\C)CC/C=C(\C)CC/C=C(\C)CC/C=C(\C)CC/C=C(\C)CC/C=C(\C)CC/C=C(\C)CC/C=C(\C)CC/C=C(\C)CCC=C(C)C)=C(C)C1=O [UQ10, ubiquinone-10]
[1]
  soluble UQ10 in the water-only control: no detectable soluble UQ10
Pdss2/Mclk1 DKO cells [2]; UQ10 at sufficient doses, Mclk1 SKO and Pdss2/Mclk1 DKO cells
  rates of mitochondrial respiration: increases rates of mitochondrial respiration
Pdss2/Mclk1 DKO cells [3]; if provided at a sufficient amount
  rescue from galactose-induced cell death by UQ supplementation: sufficient to rescue them from galactose-induced cell death
Human Hela cells
  cellular UQ10 levels: no effect on intracellular UQ10 levels
Wildtype MEFs
  cellular UQ10 levels: no effect on intracellular UQ10 levels
Mclk1 KO cells; UQ10 0.5 μM (FIG. 3C)
  survival of Mclk1 KO cells in galactose medium: little effect
Mclk1 KO cells; UQ10 10 μM (FIG. 3C)
  survival of Mclk1 KO cells in galactose medium: almost full rescue

## O=C(O)c1ccc(O)cc1O [2,4-DHB, 2,4-dihydroxybenzoic acid]
Mclk1 KO cells; sufficiently high dose (FIG. 3A)
  survival of Mclk1 KO cells in galactose-containing media: allows them to survive in galactose-containing media

## Benzalkonium chloride [BAC]
cells
  cellular uptake of UQ10 compared to adding UQ10 alone: increased cellular uptake of UQ10

## CCCCCCCCCCCCCC[N+](C)(C)C.[Br-] [TTAB, Tetradecyl trimethyl ammonium bromide]
cells
  cellular uptake of UQ10 compared to adding UQ10 alone: increased cellular uptake of UQ10

## CC(C)CCCCCCCCC[C@@H]1CC(=O)N[C@@H](CCC(=O)O)C(=O)N[C@@H](CC(C)C)C(=O)N[C@H](CC(C)C)C(=O)N[C@@H](C(C)C)C(=O)N[C@@H](CC(=O)O)C(=O)N[C@H](CC(C)C)C(=O)N[C@@H](CC(C)C)C(=O)O1 [surfactin] (HELM PEPTIDE1{E.L.[dL].V.D.[dL].L}|CHEM1{[CC(C)CCCCCCCCC[C@H](CC(=O)[*:1])O[*:2]]}$PEPTIDE1,CHEM1,1:R1-1:R1|PEPTIDE1,CHEM1,7:R2-1:R2$$$V2.0)
[1]
  solubilization power for UQ compared to McC1: lower solubilization power than McC1
  water solubility of UQ10 in the presence of the compound: increased
[4]
  surfactant (drop collapse) activity: potent surfactant activity
Pdss2/Mclk1 DKO cells [2]; co-treatment with UQ10
  mitochondrial respiration (OCR) compared with UQ10 treatment alone: Higher respiration rates
Pdss2/Mclk1 DKO cells [3]; 10 μM surfactin with a small amount of UQ10 (FIG. 17D)
  viability rescue of DKO cells: full viability rescue
Pdss2/Mclk1 DKO cells [3]; compound by itself, no UQ10 added
  survival of DKO cells in galactose medium: no effect
[5]; FIG. 17C right panel
  UQ uptake into mitochondria compared to McC1: less stimulating action on UQ uptake into mitochondria
[5]; in combination with UQ10, vs UQ10 alone
  uptake of exogenous UQ10 into mitochondria: augmented uptake of UQ into mitochondria
Pdss2/Mclk1 DKO MEFs
  cellular uptake of exogenous UQ10: improves UQ10 uptake into cells

## COc1cc(/C=C/C(=O)CC(=O)/C=C/c2ccc(O)c(OC)c2)ccc1O [curcumin]
[6]
  solubility of free curcumin in water: very low solubility in water
